Assay results as given in patent US20250145596A1, “HETEROCYCLIC GLP-1 AGONISTS” (Gasherbrum Bio, Inc., priority 2022, published 2025).

Target: T1, GLP-1 Receptor (Homo sapiens, UniProt P43220)
T1 construct: host or cells: HEK293/CRE-Luc
Assay: GLP-1R agonist cAMP stimulation assay
Type: cell-based
Conditions: HEK293/CRE-Luc cell line stably expressing the GLP-1 Receptor; 30 min at 37° C.; cAMP dynamic 2 Kit
Method in brief: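 HEK293 cells stably expressing GLP-1R with CRE-luciferase, 1000 cells/well in DPBS with 0.5 mM IBMX and 0.1% BSA, exposed to compound (½-log dilutions) for 30 min at 37 °C. cAMP measured by HTRF (665/615 nm) after 1 h at room temperature; % activity scaled between vehicle and maximal control.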

T1 sequence (P43220 24-463): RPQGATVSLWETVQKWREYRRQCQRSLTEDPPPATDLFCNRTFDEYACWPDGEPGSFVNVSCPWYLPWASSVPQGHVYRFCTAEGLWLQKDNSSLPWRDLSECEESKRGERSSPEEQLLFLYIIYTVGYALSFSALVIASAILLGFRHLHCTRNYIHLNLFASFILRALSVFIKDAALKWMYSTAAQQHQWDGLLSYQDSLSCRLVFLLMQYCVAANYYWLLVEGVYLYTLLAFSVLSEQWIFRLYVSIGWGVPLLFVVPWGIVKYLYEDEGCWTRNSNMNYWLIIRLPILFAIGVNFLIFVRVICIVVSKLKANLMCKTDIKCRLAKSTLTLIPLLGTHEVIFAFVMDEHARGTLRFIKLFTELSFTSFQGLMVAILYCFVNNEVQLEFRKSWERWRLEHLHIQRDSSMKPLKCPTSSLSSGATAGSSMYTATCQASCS

EC50 | SMILES
1 to 100 nM | COC(C)Cc1cc(-c2nnc(C(F)(F)F)[nH]2)cnc1CN1CCC(c2cccc3c2O[C@@](C)(c2ccc(Cl)cc2F)O3)CC1 (stereo partly shown) [Example 81]
< 1 nM | N#CC1(Cc2cc(-c3nnc(C(F)(F)F)[nH]3)cnc2CN2CCC(c3ncc(F)c(OCc4ccc(Cl)cc4F)n3)CC2)CC1 [Example 36, 1-((2-((4-(4-((4-chloro-2-fluorobenzyl)oxy)-5-fluoropyrimidin-2-yl)piperidin-1-yl)methyl)-5-(5-(trifluoromethyl)-4H-1,2,4-triazol-3-yl)pyridin-3-yl)methyl)cyclopropane-1-carbonitrile]
1 to 100 nM | N#CC1(Cc2cc(-c3nnc(C(F)(F)F)[nH]3)cnc2CN2CCN(c3ncc(F)c(OCc4ccc(Cl)cc4F)n3)CC2)CC1 [Example 45, 1-((2-((4-(4-((4-chloro-2-fluorobenzyl)oxy)-5-fluoropyrimidin-2-yl)piperazin-1-yl)methyl)-5-(5-(trifluoromethyl)-4H-1,2,4-triazol-3-yl)pyridin-3-yl)methyl)cyclopropane-1-carbonitrile]
< 1 nM | N#CC1(Cc2cc(-c3nnc(C(F)(F)F)[nH]3)cnc2CN2CC=C(c3cccc(OCc4ccc(Cl)cc4F)n3)CC2)CC1 [Example 47, 1-{[2-({6-[(4-chloro-2-fluorophenyl)methoxy]-1′,2′,3′,6′-tetrahydro-[2,4′-bipyridin]-1′-yl}methyl)-5-[5-(trifluoromethyl)-4H-1,2,4-triazol-3-yl]pyridin-3-yl]methyl}cyclopropane-1-carbonitrile]
< 1 nM | CC1(c2ccc(Cl)cc2Cl)Oc2cccc(C3CCN(Cc4ncc(-c5nnc(C(F)(F)F)[nH]5)cc4CC4(C#N)CC4)CC3)c2O1 (single isomer, unassigned) [Example 3, 1-{[2-({4-[2-(2,4-dichlorophenyl)-2-methyl-2H-1,3-benzodioxol-4-yl]piperidin-1-yl}methyl)-5-[5-(trifluoromethyl)-4H-1,2,4-triazol-3-yl]pyridin-3-yl]methyl}cyclopropane-1-carbonitrile]
< 1 nM | CC1(c2ccc(Cl)cc2F)Oc2cccc(C3CCN(Cc4ncc(-c5nnc(C(F)(F)F)[nH]5)cc4CC4(C#N)CC4)CC3O)c2O1 (single isomer, unassigned) [Example 24, 1-[(2-{[(3,4-trans)-4-[2-(4-chloro-2-fluorophenyl)-2-methyl-2H-1,3-benzodioxol-4-yl]-3-hydroxypiperidin-1-yl]methyl}-5-[5-(trifluoromethyl)-4H-1,2,4-triazol-3-yl]pyridin-3-yl)methyl]cyclopropane-1-carbonitrile]
< 1 nM | C[C@]1(c2ccc(Cl)cn2)Oc2cccc(C3CCN(Cc4ncc(-c5noc(=O)[nH]5)cc4CC4(C#N)CC4)CC3)c2O1 [Example 77]
1 to 100 nM | COCC1(Cc2cc(-c3nnc(C(F)(F)F)[nH]3)cnc2CN2CCC(c3cccc4c3OC(C)(c3ccc(Cl)cn3)O4)CC2)CC1 (stereo not shown) [Example 85]
< 1 nM | CC1(c2ccc(Cl)cc2F)Oc2ccc(F)c(C3CCN(Cc4ncc(-c5nnc(C(F)(F)F)[nH]5)cc4CC4(C#N)CC4)CC3)c2O1 (stereo not shown) [Example 15, 1-{[2-({4-[2-(4-Chloro-2-fluorophenyl)-5-fluoro-2-methyl-2H-1,3-benzodioxol-4-yl]piperidin-1-yl}methyl)-5-[5-(trifluoromethyl)-4H-1,2,4-triazol-3-yl]pyridin-3-yl]methyl}cyclopropane-1-carbonitrile]
1 to 100 nM | C[C@]1(c2ccc(Cl)cc2F)Oc2cccc(C3CCN(Cc4ncc(-c5nnc(C(F)(F)F)[nH]5)cc4CC4CCOC4)CC3)c2O1 (stereo partly shown) [Example 79]
